Consider one molecule from US20040097408A1, “Compounds regulating cell proliferation and differentiation” (priority 2001, published 2004).

The nature of data set [1]: FACS analysis of F16 in tumor cell populations. The data set is classed as in vivo, mouse. Conditions: tumors of F16-treated nude mice. The protocol:
Several tumor cell populations from F16 treated and untreated mice were analyzed by FACS, in order to determine the presence of F16 in the cells.
(In general: Flow cytometry measures light scatter and fluorescence of single cells or particles in a stream.)

A further data set deals with A6 cells. As to the kind of experiment: apoptosis time course (DNA fragmentation, propidium iodide staining, cytochrome c release). Type of data set: cell-based, mouse. Conditions: 3 μM F16, 48, 60 and 72 hr, FIG. 6. As for the experimental part: The DNA fragmentation assay was conducted by isolating DNA from 1×10^6 of untreated or F16 treated for 48, 60 and 72 hr using Suicide-Track TM (Oncogene) according to manufacturer's procedure. Samples were resolved by agarose gel electrophoresis and ethidium-bromide stained. Cytochrome c release was measured by immunofluorescence as follows. Untreated or F16-treated A6 cells were washed and fixed with ice-cold 3.7% paraformaldehyde at RT, permeabilized for with ice-cold 0.01% (v/v) Nonidet P-40 for 20 min and incubated with 0.5% BSA/PB. Immunodetection was performed with monoclonal anti-cytochrome c antibody (PharMingen) and secondary anti-mouse-TRITC conjugated antibody. Cells were photographed under Axioskop using a Spot Camera (Diagnostic Instruments).

For a further data set, the system named is NF324-1B. The data set is described as follows: cell count proliferation assay. Type of data set: cell-based, mouse. Further details: key: +: A positive scoring in these Tables represent cells in which a 2-5 and a 10-40 fold reduction in the total number of cells relative to the control untreated cells was observed after 3 and 7 days of culture with F16, respectively. Conditions: Neu, breast, F16 3 μM, cells counted after 3 and 7 days. The source says:
(§1) The following panel of mouse tumor cell lines derived from Neu, Ras and Myc transgenic mice and panel of human cancer cell lines were used: a) Neu-initiated mouse tumor cell lines NF980, NF324-2A, NF324-1B, SMF, NAF, Neu4145, n-Neu, Ras-initiated mouse tumor cell lines SH1,1, AC236, AC711, AC816, ACp53^−#1, ACp53^−4782, AC222, AC99, AC260, ACp53^−#19, ACp53^−#16, AC/Balb6.6, AC/Balb14, AC/Balb12 and Myc-initiated mouse tumor cell lines 16MB9a, 13MA1a; and b) human breast tumor cell lines MDA-MB231, MDA-MB435, MDA-MB436, MDA-MB453, MDA-MB-468, SKBR-3, MCF-7, T47D, ZR75; human prostate cancer cell lines LNCaP, PC-3, DU145 and the human ovarian cancer cell line SKOV-3.
(§2) For each cell line, 10^5 cells were seeded in 4×6 well plates. Next day, F16 was added at 3 μM to the medium of 2 of the plates, while the other two were left untreated (control). Cells were counted 3 days and 7 days after initiation of treatment.
(§3) A positive scoring in these Tables represent cells in which a 2-5 and a 10-40 fold reduction in the total number of cells relative to the control untreated cells was observed after 3 and 7 days of culture with F16, respectively.

The subject of the next data set is NF980. As to the kind of experiment: cell count proliferation assay. Type of data set: cell-based, mouse. Further details: key: +: A positive scoring in these Tables represent cells in which a 2-5 and a 10-40 fold reduction in the total number of cells relative to the control untreated cells was observed after 3 and 7 days of culture with F16, respectively. Conditions: NF980, Neu, breast; F16 3 μM, cells counted after 3 and 7 days.
From the text: as §1, §2, §3

The next data set has as its system AC711. The data set is described as follows: cell count proliferation assay. Type of data set: cell-based, mouse. Further details: key: +: A positive scoring in these Tables represent cells in which a 2-5 and a 10-40 fold reduction in the total number of cells relative to the control untreated cells was observed after 3 and 7 days of culture with F16, respectively. The following applies: AC711, Ras, breast; F16 3 μM, cells counted after 3 and 7 days.
From the text: as §1, §2, §3

Another data set has as its system AC816. As to the kind of experiment: cell count proliferation assay. Further details: key: +: A positive scoring in these Tables represent cells in which a 2-5 and a 10-40 fold reduction in the total number of cells relative to the control untreated cells was observed after 3 and 7 days of culture with F16, respectively. Conditions: AC816, Ras, breast; F16 3 μM, cells counted after 3 and 7 days. The data set is classed as cell-based, mouse.
From the text: as §1, §2, §3

In a further data set the test system is n-Neu. As to the kind of experiment: cell count proliferation assay. Type of data set: cell-based, mouse. Further details: key: +: A positive scoring in these Tables represent cells in which a 2-5 and a 10-40 fold reduction in the total number of cells relative to the control untreated cells was observed after 3 and 7 days of culture with F16, respectively. Conditions: breast, F16 3 μM, cells counted after 3 and 7 days.
From the text: as §1, §2, §3

The subject of the next data set is AC236. As to the kind of experiment: cell count proliferation assay. The data set is classed as cell-based, mouse. Further details: key: +: A positive scoring in these Tables represent cells in which a 2-5 and a 10-40 fold reduction in the total number of cells relative to the control untreated cells was observed after 3 and 7 days of culture with F16, respectively. The following applies: AC236, Ras, breast; F16 3 μM, cells counted after 3 and 7 days.
From the text: as §1, §2, §3

For a further data set, the system named is Neu4145. The data set is described as follows: cell count proliferation assay. The following applies: Neu4145, Neu, breast; F16 3 μM, cells counted after 3 and 7 days. Type of data set: cell-based, mouse. Further details: key: +: A positive scoring in these Tables represent cells in which a 2-5 and a 10-40 fold reduction in the total number of cells relative to the control untreated cells was observed after 3 and 7 days of culture with F16, respectively.
From the text: as §1, §2, §3

In another data set the test system is NAF. As to the kind of experiment: cell count proliferation assay. Further details: key: +: A positive scoring in these Tables represent cells in which a 2-5 and a 10-40 fold reduction in the total number of cells relative to the control untreated cells was observed after 3 and 7 days of culture with F16, respectively. Type of data set: cell-based, mouse. The following applies: Neu, breast, F16 3 μM, cells counted after 3 and 7 days.
From the text: as §1, §2, §3

The subject of the next data set is NF324-2A. As to the kind of experiment: cell count proliferation assay. The data set is classed as cell-based, mouse. Further details: key: +: A positive scoring in these Tables represent cells in which a 2-5 and a 10-40 fold reduction in the total number of cells relative to the control untreated cells was observed after 3 and 7 days of culture with F16, respectively. Conditions: Neu, breast, F16 3 μM, cells counted after 3 and 7 days.
From the text: as §1, §2, §3

A further data set relates to SMF. As to the kind of experiment: cell count proliferation assay. Type of data set: cell-based, mouse. Further details: key: +: A positive scoring in these Tables represent cells in which a 2-5 and a 10-40 fold reduction in the total number of cells relative to the control untreated cells was observed after 3 and 7 days of culture with F16, respectively. The following applies: Neu, breast, F16 3 μM, cells counted after 3 and 7 days.
From the text: as §1, §2, §3

The test system of another data set is SH1.1. As to the kind of experiment: cell count proliferation assay. The data set is classed as cell-based, mouse. The following applies: SH1.1, Ras, breast; F16 3 μM, cells counted after 3 and 7 days. Further details: key: +: A positive scoring in these Tables represent cells in which a 2-5 and a 10-40 fold reduction in the total number of cells relative to the control untreated cells was observed after 3 and 7 days of culture with F16, respectively.
From the text: as §1, §2, §3

On to `C[n+]1ccc(/C=C/c2c[nH]c3ccccc23)cc1.[I-]` [F16], for which the “presence of F16 in tumor cells (fluorescent signal, FACS)” value in data set [1] is listed as “delivered to the tumor cell mass”. The “cell death on prolonged incubation” value in the data set with A6 cells is recorded as “increased cell death”. Moreover, the F16 response result with NF324-1B, in the data set on NF980, with AC711, with AC816, in the data set on n-Neu and in the data set on AC236 was “+” in each case. Further, the F16 response result in the data set with Neu4145, in the data set with NAF, with NF324-2A, in the data set on SMF and in the data set with SH1.1 was “+” each time.
